Source: patent publication US11141368B2, “Cosmetic composition, cosmetic treatment method, kit, and compound” (L'OREAL, priority 2010, dated 2021)

Legend:
[1] = Porosity measurement of the locks of hair using a fluorescent probe; conditions: after 5 shampoo washes, 5% by weight in distilled water
[2] = Improvement of hair straightening: leave-in post-treatment of alkaline-straightened hair, visual observation; conditions: 5% by weight in distilled water
Excerpt: Applied to hair (originally curly hair of curliness IV) straightened by an alkaline hair-straightening product (Goldys—2% active sodium hydroxide) is the following composition, with an amount of product/amount of hair ratio (g/g) of 2, without rinsing: • 5% by weight of compound (2) from Example 2 • qs for 100% distilled water
Observations are made at T0.
The locks are then washed once or 5 times using Ultra Mild shampoo (Garnier), then dried. Observations are made at T1 (after 1 shampoo wash) and at T5 (after 5 shampoo washes).
The control locks are treated with a composition comprising 100% distilled water.

Cc1cc(=O)nc(NC(=O)NCCCN(C)C)[nH]1 [Compound 2, N-[3-(dimethylamino)propyl]-N′-(6-methyl-4-oxo-1,4-dihydropyrimidin-2-yl)urea]
internal porosity of the hair versus control hair [1]: equivalent porosity | hair-straightening efficiency compared to control post-treatment (distilled water) ([2]; T0, product/hair ratio 2 g/g, no rinsing, hair straightened with 2% sodium hydroxide product): improved | persistence of the improvement in hair-straightening efficiency after shampoo washes ([2]; T1 (after 1 shampoo wash) and T5 (after 5 shampoo washes)): persists
